Data from patent publication US20200022964A1, “COMPOSITIONS AND METHODS FOR TREATMENT OF INFLAMMATORY AUTOIMMUNE DISEASES” (New York University, priority 2018, published 2020).

Columns and labels:
cPLA2 [1] = molecular target: cPLA2 (Homo sapiens, UniProt P47712); details: 293 T cells transfected with Flag-tagged mutants
Description: (§1) DARTS assay. Drug affinity responsive target stability (DARTS) assay was performed based on previously reported methods^4. In brief, cell lysate was extracted by M-PER™ Mammalian Protein Extraction Reagent (78501, Thermo Fisher), briefly centrifuged, and mixed with drugs or DMSO for 1 hour on a rotator. Pronase (P5147, Sigma-Aldrich) was added in the mixture for 15 minutes at room temperature. Digestion was stopped by 10 minute incubation with protease inhibitor cocktail on ice. Samples were boiled in SDS loading buffer for SDS-PAGE and Western blot.
(§2) Site-directed mutagenesis.
(§3) Construction of plasmids. The construction of cPLA2 mutant plasmids was based on serial C-terminal and N-terminal deletion of the amino acid sequences associated with functional structure. Each plasmid carried a flag tag. The constructions were: full length cPLA2 (1-750), cPLA2 (126-750), cPLA2 (406-750), cPLA2 (1-479), and cPLA2 (1-144).
Target sequence in this assay (P47712 1-479): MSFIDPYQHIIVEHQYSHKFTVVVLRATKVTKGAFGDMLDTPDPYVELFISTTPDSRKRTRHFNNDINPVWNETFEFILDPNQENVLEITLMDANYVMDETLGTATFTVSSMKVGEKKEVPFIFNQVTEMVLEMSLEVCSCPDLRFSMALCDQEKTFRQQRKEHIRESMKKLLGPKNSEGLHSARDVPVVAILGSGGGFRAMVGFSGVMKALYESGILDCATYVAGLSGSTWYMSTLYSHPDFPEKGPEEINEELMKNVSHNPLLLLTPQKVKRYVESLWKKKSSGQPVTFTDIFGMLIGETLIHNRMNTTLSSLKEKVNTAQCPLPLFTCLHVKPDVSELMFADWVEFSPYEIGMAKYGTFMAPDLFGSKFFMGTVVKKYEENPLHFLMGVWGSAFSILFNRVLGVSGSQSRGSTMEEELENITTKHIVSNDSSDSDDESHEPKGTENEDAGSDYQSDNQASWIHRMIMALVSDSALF

cPLA2 [2] = molecular target: cPLA2 (Homo sapiens, UniProt P47712); details: 293 T cells transfected with Flag-tagged mutants; N-terminal C2D and CD1 deletion
Description: as §1, §2, §3
Target sequence in this assay (P47712 126-749): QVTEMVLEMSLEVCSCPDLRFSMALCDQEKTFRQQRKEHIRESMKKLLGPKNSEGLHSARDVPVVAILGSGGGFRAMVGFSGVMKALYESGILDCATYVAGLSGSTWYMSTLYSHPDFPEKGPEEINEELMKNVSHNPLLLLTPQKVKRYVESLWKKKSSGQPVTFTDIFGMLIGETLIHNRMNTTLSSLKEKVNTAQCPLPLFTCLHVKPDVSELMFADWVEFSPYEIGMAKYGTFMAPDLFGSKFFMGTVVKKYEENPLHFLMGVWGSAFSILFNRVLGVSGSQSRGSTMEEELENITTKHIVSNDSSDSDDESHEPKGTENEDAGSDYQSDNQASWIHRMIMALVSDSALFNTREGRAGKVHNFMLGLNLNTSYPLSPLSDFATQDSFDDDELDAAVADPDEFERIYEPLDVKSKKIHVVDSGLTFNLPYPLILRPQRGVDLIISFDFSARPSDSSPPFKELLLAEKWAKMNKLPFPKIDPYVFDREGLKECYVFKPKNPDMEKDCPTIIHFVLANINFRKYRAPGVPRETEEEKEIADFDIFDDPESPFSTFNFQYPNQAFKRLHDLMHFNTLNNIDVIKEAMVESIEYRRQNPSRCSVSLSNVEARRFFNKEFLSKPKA

cPLA2 [3] = molecular target: cPLA2 (Homo sapiens, UniProt P47712, S505A); details: 293 T cells transfected with point mutant plasmid
Chain of cPLA2 (Homo sapiens, UniProt P47712, S505A) (P47712 whole entry S505A): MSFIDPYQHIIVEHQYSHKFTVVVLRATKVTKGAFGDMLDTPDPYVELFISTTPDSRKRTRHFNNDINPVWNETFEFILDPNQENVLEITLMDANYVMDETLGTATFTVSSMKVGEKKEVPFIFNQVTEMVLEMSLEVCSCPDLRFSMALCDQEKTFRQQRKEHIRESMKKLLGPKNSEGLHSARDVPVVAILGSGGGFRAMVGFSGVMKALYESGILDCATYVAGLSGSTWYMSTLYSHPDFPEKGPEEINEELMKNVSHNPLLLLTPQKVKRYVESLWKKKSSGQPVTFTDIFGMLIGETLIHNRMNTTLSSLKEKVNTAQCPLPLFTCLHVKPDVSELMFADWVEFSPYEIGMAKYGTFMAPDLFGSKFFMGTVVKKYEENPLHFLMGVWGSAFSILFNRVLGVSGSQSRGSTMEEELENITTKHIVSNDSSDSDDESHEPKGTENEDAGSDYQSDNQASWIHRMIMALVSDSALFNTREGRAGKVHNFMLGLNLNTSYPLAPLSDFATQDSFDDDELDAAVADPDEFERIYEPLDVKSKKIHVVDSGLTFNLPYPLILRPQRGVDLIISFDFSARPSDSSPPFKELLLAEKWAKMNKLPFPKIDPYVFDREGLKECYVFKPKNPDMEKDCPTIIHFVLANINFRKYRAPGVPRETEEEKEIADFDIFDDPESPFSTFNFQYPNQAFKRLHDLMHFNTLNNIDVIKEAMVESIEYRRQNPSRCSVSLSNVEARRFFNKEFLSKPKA
Description: as §1, §2, §3

cPLA2 [4] = details: series of protease to cell lysate ratios
Description: as §1, §2, §3

p38 or ERK1/2 = test: Western blot of TNF activated phosphorylation of p38 and ERK1/2 in BMDMs; format: cell-based, mice; details: TNF-α 10 ng/mL; FFD 10 μM
Description: (§4) Primary bone marrow derived macrophages (BMDMs) extraction. BMDMs were isolated from C57BL/6 and TNF-tg mice. After mice were sacrificed by cervical dislocation, the tibia and femur were isolated and both ends of the bones were cut to open the medullary cavity. Bone marrow cells were collected by centrifuge at 13000 g for 90 seconds and seeded in 6-well plates. Prior to their use in experiments, M-CSF (10 ng/ml, 576406, Biolegend) was added for 6 days to the BMDM culture medium.
(§5) Western blot. After protein samples were prepared, samples were separated by SDS-PAGE and transferred to a nitrocellulose (NC) membrane (162-0115, BIO-RAD) using a wet transfer system. Membrane was blocked in 5% (w/v) non-fat milk in TBST for half an hour at room temperature, followed by incubation with appropriate primary antibody overnight at 4° C. After washing, appropriate secondary antibody was added for 1 hour at room temperature. The bands on the membrane were developed by chemiluminescent (ECL) substrate and visualized by GelDoc system.

IκB-α = test: Phosphorylation of IκB-α in vivo (data not shown)
NF-κB p65 = details: TNF-α 10 ng/mL; FFD 10 μM, TFD 1 μM
cPLA2 [5] = molecular target: T1, cPLA2 (Mus musculus, UniProt P47713); test: Western blot of TNF activated phosphorylation of cPLA2 on Ser-505 in BMDMs; format: cell-based, mice; parameters: endogenous in cells; host or cells: mouse bone marrow derived macrophages (BMDMs); details: TNF-α 10 ng/mL; FFD 10 μM
T1 sequence (P47713 1-748): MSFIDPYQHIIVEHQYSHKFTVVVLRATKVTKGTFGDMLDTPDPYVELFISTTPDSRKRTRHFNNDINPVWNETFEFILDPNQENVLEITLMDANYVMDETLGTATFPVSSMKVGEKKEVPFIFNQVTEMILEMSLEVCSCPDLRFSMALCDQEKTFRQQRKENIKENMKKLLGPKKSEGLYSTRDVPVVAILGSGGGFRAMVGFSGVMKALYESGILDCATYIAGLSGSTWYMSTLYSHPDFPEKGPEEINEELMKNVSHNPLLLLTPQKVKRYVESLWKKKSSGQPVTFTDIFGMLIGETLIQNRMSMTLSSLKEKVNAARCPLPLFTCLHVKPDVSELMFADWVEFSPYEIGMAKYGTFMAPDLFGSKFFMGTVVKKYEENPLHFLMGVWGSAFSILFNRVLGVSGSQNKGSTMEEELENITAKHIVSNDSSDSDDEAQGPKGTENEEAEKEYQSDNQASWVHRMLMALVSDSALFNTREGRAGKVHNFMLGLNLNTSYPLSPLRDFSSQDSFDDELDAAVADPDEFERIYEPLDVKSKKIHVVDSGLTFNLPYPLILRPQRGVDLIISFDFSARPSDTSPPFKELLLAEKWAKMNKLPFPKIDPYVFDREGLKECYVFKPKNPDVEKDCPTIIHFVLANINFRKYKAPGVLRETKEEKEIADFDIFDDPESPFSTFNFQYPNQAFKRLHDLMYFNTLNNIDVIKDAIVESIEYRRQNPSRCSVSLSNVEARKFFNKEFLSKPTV
Description: as §4, §5

`CC(C)(C(=O)O)c1ccc(C(O)CCCN2CCC(C(O)(c3ccccc3)c3ccccc3)CC2)cc1` (centres unmarked) [fexofenadine] was tested, and the “DARTS protective effects on mutants lacking the CD2 domain, cPLA2 (1-479) and cPLA2 (1-144)” value (cPLA2 [1]) was “did not show any protective effects”, the “DARTS protective effects on cPLA2 (126-750) and cPLA2(406-750)” value (cPLA2 [2]) was “retained protective effects” and the “DARTS protective effect on Ser-505 to Ala point mutant of cPLA2” value (cPLA2 [3]) was “lost its protective effect”. For the same compound, the “protection of cPLA2 from protease (DARTS, Western blot)” value (cPLA2 [4]) was “protected”, the “phosphorylation of p38 or ERK1/2” value (p38 or ERK1/2) was “did not affect” and the “phosphorylation of NF-κB p65 upstream mediator IκB-α in vivo” value (IκB-α) was “inhibited”. The “TNF-α-induced nuclear translocation and DNA-binding activity of p65” value (NF-κB p65) was “inhibited” and the “phosphorylation of cPLA2 on Ser-505” value (cPLA2 [5]) was “abolished”.
